These results are taken from ChEMBL document CHEMBL1153476, “Novel mannosyl derivatives of peptidoglycan monomer: Synthesis and biological evaluation of immunomodulatory properties” (2009).

In the assay the test system is Mus musculus. The assay can be described thus: Immunostimulatory activity against ovalbumin-stimulated immune response in mouse serum assessed as ratio of IgG1 to IgG2a at 200 ug, sc measured after 7 days by ELISA. The format is functional. In general terms: In an ELISA, binding on a coated surface is turned into a signal by an enzyme label.

Take `CC(=O)N[C@@H]1[C@@H](O[C@H](C)C(=O)N[C@@H](C)C(=O)N[C@H](CCC(=O)N[C@H](CCC[C@H](N)C(N)=O)C(=O)N[C@H](C)C(=O)N[C@H](C)C(=O)O)C(N)=O)[C@H](O[C@@H]2O[C@H](CO)[C@@H](O)[C@H](O)[C@H]2NC(C)=O)[C@@H](CO)O[C@H]1O`: the Ratio came to 2.6.
